# Several values for one entry are separate records, joined by “and”; a condition that tells them apart may be missing. Equal entries are not always repeated. Entries after “also recorded” stand apart in the source; their conditions may differ.
# How the values were obtained:
# [1] = Stability in mouse plasma; assay type: in vitro ADME; settings: for T½ in mouse plasma / half-life at 2 µM: 37 °C, incubation to 120 min, extrapolated half-life, n = 2; for half-life at 2 µM / remaining at 0 h, 2 µM / remaining at 10 min, 2 µM / remaining at 0.5 h, 2 µM / remaining at 1 h, 2 µM / remaining at 2 h, 2 µM: male, CD-1, mouse, plasma; for half-life at 2 µM: read-out: T½ in mouse plasma; for remaining at 0 h, 2 µM: 0 min; for remaining at 0.5 h, 2 µM: 30 min; for remaining at 1 h, 2 µM: 60 min; for remaining at 2 h, 2 µM: 120 min
# From the text: (§1) We investigated the relative rates of esterase-mediated hydrolysis[17] observed in mouse and human plasma, to evaluate potential for future translational applications. […] Due to the high stability of the C15 lactone, identified above, combined with the kinetic lability and reversible opening of the C11 lactone identified previously, enzymatic degradation in serum likely reflects a combination of reversible C11 hydrolysis[38] (unaffected by C5 methylation) and irreversible C15 hydrolysis (obstructed by C5 methylation)[17]. No prior studies have identified PXN modifications that enhance metabolic stability, partly due to the difficulty of synthetic modification and partly due to the prior incorrect assignment of the site of kinetic hydrolysis (C11 vs. C15)[38].
# (§2) Test compound working solution: 5 μL of tested compound stock solution (10 mM in DMSO) were diluted with 495 μL of DMSO (concentration: 100 μM, 100% DMSO). Propantheline bromide working solution: 5 μL of propantheline bromide stock solution (10 mM in DMSO) were diluted with 495 μL of H2O (concentration: 100 […]
# (§3) Supplementary Table 6. Test system.
# (§4) Species/ Matrix Minimum No. of Anticoagulant Vendor
# (§5) CD-1 Mouse 20 Male EDTA-K2 Beijing Vital River Laboratory
# (§6) Human Plasma 3 Male & 3 Female EDTA-K2 BioreclamationIVT
# (§7) The pooled frozen plasma was thawed in a water bath at 37 °C prior to experiment. Plasma was centrifuged at 1968 g (4000 rpm) for 5 min and the clots were removed. Using an Apricot automation work station, 98 μL/well of blank plasma were added to all 96-well reaction plates. (Blank, T0, T10, T30, T60 and T120) . An Apricot automation workstation was used to add 2 μL/well of working solution (100 μM) to all reaction plates except Blank. (T0, T10, T30, T60 and T120) . All reaction plates containing mix tures of compound a nd plasma were incubated at 37 °C in water bath. The reaction plates were incubated at 37 °C, and timer was started. At the end of incubation, 400 μL of stock solution was added (200 ng/mL tolbutamide and 200 ng/mL labetalol in MeCN) to precipitate protein and mixed thoroughly. Each plate was sealed and shaken for 20 minutes, then centrifuged at 1968 g (4000 rpm) and 4 °C for 20 minutes. After centrifugation, an Apricot automation workstation was used to transfer 150 μL supernatant. Each bioanalysis plate was sealed and shaken for 10 minutes prior to LC -MS/MS […]
# (§8) The % remaining of test compound after incubation in plasma was calculated using following equation:
# (§9) % Remaining= 100 x (PAR at appointed incubation time / PAR at T0 time) where PAR is the peak area ratio of analyte versus internal standard (IS) The appointed incubation time points are T0 (0 min), Tn (n=0, 10, 30, 60, 120 min)
# (§10) Supplementary Table 7. %Remaining of test compound in two plasmas.
# (§11) Compound Time point (min) % Remaining T½ (min)
# [2] = Stability in human plasma; assay type: in vitro ADME; settings: for T½ in human plasma / half-life at 2 µM: 37 °C, incubation to 120 min, extrapolated half-life, n = 2; for half-life at 2 µM / remaining at 0 h, 2 µM / remaining at 10 min, 2 µM / remaining at 0.5 h, 2 µM / remaining at 1 h, 2 µM / remaining at 2 h, 2 µM: both sexes, human, plasma; for half-life at 2 µM: read-out: T½ in human plasma; for remaining at 0 h, 2 µM: 0 min; for remaining at 0.5 h, 2 µM: 30 min; for remaining at 1 h, 2 µM: 60 min; for remaining at 2 h, 2 µM: 120 min
# From the text: as §1, §2, §3, §4, §5, §6, §7, §8, §9, §10, §11
# [3] = Methanolysis with NaOMe in d4-methanol (1H NMR monitoring); assay type: physicochemical; settings: for stability to catalytic NaOMe: 5 mol % NaOMe, 22 °C; for stability to catalytic NaOMe / competition experiment, 1:1 mixture of PXN and 5MePXN: d4-methanol; for concentration in competitive methanolysis: 5 mol% NaOMe in CD3OD; for competition experiment, 1:1 mixture of PXN and 5MePXN: 5 mol% NaOMe
# From the text: Even addition of 2 equivalents NaOMe had no effect on 5MePXN (Fig. 3b and SI), far exceeding the tolerance of PXN. Thus, C5 methylation stabilized PXN against buffered water hydrolysis, acidic hydrolysis and alkaline methanolysis (Fig. 3a–d, see also ref. [21]). This profound stabilization highlighted the unique effects to reactivity imparted by C5 methylation. Furthermore, it opened a window into understanding differences in blood degradation of 5MePXN.
# Supplementary Figure 4. Competitive methanolysis of PXN and 5MePXN under 5 mol% NaOMe in CD3OD.
# (a) 0 min, (b) 10 min, (c) 30 min, (d) 60 min, (e) 100 min, (f) 140 min, (g) 280 min.
# Supplementary Table 5. Concentration of each component in competitive methanolysis. […]
# Supplementary Figure 5. Concentration of PXN, d5-33, d9-34 and 5MePXN vs. time (min) 3.4 Methanolysis of 5MePXN under different equivalent of NaOMe in CD3OD To a solution of 5MePXN (2.5 mg, 0.0082 mmol ) in CD 3OD (0.4 mL) in 5 mm NMR tube was added a solution of NaOMe in CD3OD (0.1, 0.2, 0.5, 0.8, 1.0, 1.5 and 2.0 equiv) at room temperature. The NMR tube was shaken bottom up 5 times to make solution homogenous, then measured by 1H NMR.
# [4] = D2O, 8.2 pH*; previously observed; cited from earlier work
smiles,measurement,setting,value
"C=C(C)C1C2OC(=O)C1(C)C1(O)CC3OC34C(=O)OC2C41C (centres unmarked) [5MePXN, 5-methylpicrotoxinin]","increase of extrapolated half-life by C5 methylation, mouse plasma",[1]; 5MePXN vs. PXN,2.1 X
same,T½ in mouse plasma,[1],3.45 h
same,half-life at 2 µM,[1],3.45 h
same,"remaining at 0 h, 2 µM",[1],100%
same,"remaining at 10 min, 2 µM",[1],97.9%
same,"remaining at 0.5 h, 2 µM",[1],87.9%
same,"remaining at 1 h, 2 µM",[1],75.7%
same,"remaining at 2 h, 2 µM",[1],68%
same,"increase of extrapolated half-life by C5 methylation, human plasma",[2]; 5MePXN vs. PXN,2.7 X
same,T½ in human plasma,[2],4.82 h and > 4.82 h
same,half-life at 2 µM,[2],4.82 h
same,"remaining at 0 h, 2 µM",[2],100%
same,"remaining at 10 min, 2 µM",[2],103%
same,"remaining at 0.5 h, 2 µM",[2],93.7%
same,"remaining at 1 h, 2 µM",[2],84.5%
same,"remaining at 2 h, 2 µM",[2],77.7%
same,stability to catalytic NaOMe,[3],did not observe any consumption
same,concentration in competitive methanolysis,[3]; 0 min,3268 µM
same,concentration in competitive methanolysis,[3]; 5 min,3268 µM
same,concentration in competitive methanolysis,[3]; 10 min,3268 µM
same,concentration in competitive methanolysis,[3]; 15 min,3268 µM
same,concentration in competitive methanolysis,[3]; 20 min,3268 µM
same,concentration in competitive methanolysis,[3]; 25 min,3268 µM
same,concentration in competitive methanolysis,[3]; 30 min,3268 µM
same,concentration in competitive methanolysis,[3]; 35 min,3268 µM
same,concentration in competitive methanolysis,[3]; 40 min,3268 µM
same,concentration in competitive methanolysis,[3]; 45 min,3268 µM
same,concentration in competitive methanolysis,[3]; 50 min,3268 µM
same,concentration in competitive methanolysis,[3]; 55 min,3268 µM
same,concentration in competitive methanolysis,[3]; 60 min,3268 µM
same,concentration in competitive methanolysis,[3]; 65 min,3268 µM
same,concentration in competitive methanolysis,[3]; 70 min,3268 µM
same,concentration in competitive methanolysis,[3]; 75 min,3268 µM
same,concentration in competitive methanolysis,[3]; 80 min,3268 µM
same,concentration in competitive methanolysis,[3]; 85 min,3268 µM
same,concentration in competitive methanolysis,[3]; 90 min,3268 µM
same,concentration in competitive methanolysis,[3]; 95 min,3268 µM
same,concentration in competitive methanolysis,[3]; 100 min,3268 µM
same,concentration in competitive methanolysis,[3]; 110 min,3268 µM
same,concentration in competitive methanolysis,[3]; 120 min,3268 µM
same,concentration in competitive methanolysis,[3]; 130 min,3268 µM
same,concentration in competitive methanolysis,[3]; 140 min,3268 µM
same,concentration in competitive methanolysis,[3]; 280 min,3268 µM
same,"competition experiment, 1:1 mixture of PXN and 5MePXN",[3],completely persisted
same,stability to excess NaOMe,[3]; 200 mol % (2 equivalents) NaOMe,had no effect; also recorded: stable
same,t1/2 of degradation (pseudo-first order),[4],120 h
"C=C(C)[C@@H]1[C@H]2OC(=O)[C@@H]1[C@]1(O)C[C@H]3O[C@]34C(=O)O[C@H]2[C@]14C [PXN, picrotoxinin]",T½ in mouse plasma,[1],1.62 h
same,half-life at 2 µM,[1],1.62 h
same,"remaining at 0 h, 2 µM",[1],100%
same,"remaining at 10 min, 2 µM",[1],102%
same,"remaining at 0.5 h, 2 µM",[1],87.1%
same,"remaining at 1 h, 2 µM",[1],67.4%
same,"remaining at 2 h, 2 µM",[1],44.7%
same,T½ in human plasma,[2],1.8 h
same,half-life at 2 µM,[2],1.8 h
same,"remaining at 0 h, 2 µM",[2],100%
same,"remaining at 10 min, 2 µM",[2],130%
same,"remaining at 0.5 h, 2 µM",[2],114%
same,"remaining at 1 h, 2 µM",[2],72.9%
same,"remaining at 2 h, 2 µM",[2],55.8%
same,stability to catalytic NaOMe,[3],equimolar mixture of d5-methyl picrotoxate (d5-33) and d9-dimethyl picrotoxinin dicarboxylate (d9-34) in 6 h; also recorded: unstable
same,concentration in competitive methanolysis,[3]; 0 min,3424.6 µM
same,concentration in competitive methanolysis,[3]; 5 min,2952 µM
same,concentration in competitive methanolysis,[3]; 10 min,2500 µM
same,concentration in competitive methanolysis,[3]; 15 min,2181 µM
same,concentration in competitive methanolysis,[3]; 20 min,1935 µM
same,concentration in competitive methanolysis,[3]; 25 min,1679 µM
same,concentration in competitive methanolysis,[3]; 30 min,1564 µM
same,concentration in competitive methanolysis,[3]; 35 min,1495 µM
same,concentration in competitive methanolysis,[3]; 40 min,1464 µM
same,concentration in competitive methanolysis,[3]; 45 min,1375 µM
same,concentration in competitive methanolysis,[3]; 50 min,1307 µM
same,concentration in competitive methanolysis,[3]; 55 min,1223 µM
same,concentration in competitive methanolysis,[3]; 60 min,1119 µM
same,concentration in competitive methanolysis,[3]; 65 min,1044 µM
same,concentration in competitive methanolysis,[3]; 70 min,962 µM
same,concentration in competitive methanolysis,[3]; 75 min,925.6 µM
same,concentration in competitive methanolysis,[3]; 80 min,856.1 µM
same,concentration in competitive methanolysis,[3]; 85 min,800.1 µM
same,concentration in competitive methanolysis,[3]; 90 min,773 µM
same,concentration in competitive methanolysis,[3]; 95 min,730.2 µM
same,concentration in competitive methanolysis,[3]; 100 min,704.7 µM
same,concentration in competitive methanolysis,[3]; 110 min,611.5 µM
same,concentration in competitive methanolysis,[3]; 120 min,560.5 µM
same,concentration in competitive methanolysis,[3]; 130 min,515 µM
same,concentration in competitive methanolysis,[3]; 140 min,466.6 µM
same,concentration in competitive methanolysis,[3]; 280 min,215.8 µM
same,"competition experiment, 1:1 mixture of PXN and 5MePXN",[3],completely degraded
same,t1/2 of degradation (pseudo-first order),[4],60 h

# From article PMC10721898, “C5 methylation confers accessibility, stability and selectivity to picrotoxinin” (Nature Communications, 2023)
